{"source": "patent US20240174744A1", "about": "“METHODS OF TREATMENT USING PROTEIN BINDERS TO IRHOM2 EPITOPES” (SCIRHOM GMBH, priority 2021, published 2024)", "tested_on": "LPS-induced release of TNFα from THP-1 cells", "assay": "ELISA-based TNFα release assay, LPS-stimulated THP-1 cells", "format": "cell-based, human", "conditions": "10 μg/ml, Batimastat 10 μM, LPS 50 ng/ml, 2 hours", "method": "In the following study, ELISA-based TNFα release assays were performed to verify the inhibitory effects of the purified antibodies of the present disclosure on LPS-induced release of endogenous TNFα from human THP-1 monocytic cells.\nIn brief, on day 1, Nunc black MaxiSorp® 96-well plates (Thermo Fisher Scientific, USA) were coated overnight with 100 μl per well of mouse anti-human TNFα capture antibody (provided as part of the DuoSet ELISA kit) at 4 μg/ml TBS at 4° C. On day 2, the capture antibody solution was removed and MaxiSorp® plates were blocked with 300 μl per well of TBS, 1% BSA at room temperature for 3 hours. […] Using an infinite M1000 (Tecan Group, Switzerland) microplate reader, the fluorescence of each well was collected at an excitation wavelength of 435 nm and an emission wavelength of 555 nm. […]", "data": [{"smiles": "CNC(=O)[C@H](Cc1ccccc1)NC(=O)[C@H](CC(C)C)[C@H](CSc1cccs1)C(=O)NO", "note": "[Batimastat]", "values": [{"measurement": "inhibition of LPS-induced release of TNFα from THP-1 cells", "setting": "antibodies purified from hybridoma supernatants", "value": 96.2, "unit": "%"}, {"measurement": "inhibition of LPS-induced release of TNFα from THP-1 cells", "setting": "recombinant antibodies (Expi293F)", "value": 96.2, "unit": "%"}]}]}
